# Experimental data reported in patent publication US9598667B2, “Use of metal ions for modulation of protein glycosylation profiles of recombinant proteins” (AbbVie, Inc., priority 2013, dated 2017).
# Key:
# [1] = test system: N-glycan glycosylation profile of Antibody 1 expressed in CHO cells; assay: N-glycan oligosaccharide profile of Antibody 1 from shake flask culture (2-AB labelling, normal phase HPLC); conditions: for galactosylation: Example 7
# From the text: (§1) To test the effect of metal ions of protein glycosylation, recombinant Chinese Hamster Ovary (CHO) cell lines (CHO DUX-B11 origin based on a DHFR (dihydrofolate reductase) expression system) expressing two different humanized monoclonal antibodies (Antibody 1, Antibody 2) or a dual variable domain immunoglobulin (DVD-Ig) were shake flask cultured in chemically defined basal medium (CDBM) and chemically defined feed medium (CDFM) supplemented with selected iron compounds. The cell lines were serially expanded through separate seed train inoculums to generate enough cells for inoculation. All supplemented cultures were performed in triplicate unless otherwise indicated.
# The glycosylation profile of the recombinantly expressed proteins was then determined using standard procedures. Approximately 200 μg of Protein A purified samples from Cell Lines 1 and 2 were then treated with N-glycanase at 37° C. overnight to remove the N-glycans from the protein. The protein was precipitated and the supernatant was taken for subsequent chemical derivatization of the reducing end of the released glycans with 2-aminobenzamide (2-AB) dye. Following the derivatization step, the excess labeled was removed using clean up cartridges and the samples were analyzed using normal phase HPLC with fluorescent detection. Mobile phase A was 100% acetonitrile and mobile phase B was 50 mM ammonium formate pH 4.4. The glycan were eluted from a polyamide column (Prozyme, Hayward, Calif.) using a shallow gradient. The labeled glycans were detected using a fluorescence detector with an excitation wavelength of 330 nm and an emission wavelength of 420 nm.
# Concentrations of the respective iron compounds were chosen so as to minimize any potential adverse impacts on cell growth and productivity, but still facilitate a measurable impact on the glycoform profile. […] Cell culture process performance indicators were monitored and measured throughout the respective cultures. Viable cell density, cell viability, harvest titer, and harvest N-glycan oligosaccharide data was measured and reported.
# By introducing iron to the culture via the feed medium, exposure to iron would be more gradual over the length of the culture. The impact to Antibody 1 was evaluated in triplicate shake flasks as described previously.
# All evaluations were performed in triplicate in shake flasks with the cell line expressing Antibody 1.
# The next set of experiments explored if iron transport into the cell or the galactose availability were the limiting factors. Recombinant transferrin (rTf) was added to triplicate shake flask cultures with the cell line expressing Antibody 1 with varying concentrations of ferric citrate. An independent experiment was performed with the same cell line to also determine if galactose supplementation in addition to iron and transferrin would enhance the galactosylation with triplicate shake flasks for each condition.
# [2] = test system: N-glycan glycosylation profile of DVD-Ig (DVD 1) expressed in CHO cells; assay: N-glycan oligosaccharide profile of DVD-Ig (DVD 1) from shake flask culture; type: cell-based, Chinese Hamster
# Procedure: Sodium citrate was included to provide additional evidence that the impact to the oligosaccharide profile with the prior experiments was a result of the iron addition. All conditions were performed in triplicate.
# [3] = test system: CHO cell line expressing Antibody 2; assay: Shake flask fedbatch culture performance, cell line expressing Antibody 2; type: cell-based, Chinese Hamster; conditions: 0.1 or 1.0 mM in basal medium; vs unsupplemented control
# From the text: as §1
# Absolute concentrations were assigned with respect to reference standard calibration curves.
# The unsupplemented control was performed in duplicate.
# [4] = test system: N-glycan glycosylation profile of Antibody 1; assay: N-glycan oligosaccharide profile of Antibody 1 in bioreactors; type: cell-based, Chinese Hamster; conditions: pH 6.90, dissolved oxygen 40% air saturation, two independent experiments
# Procedure: Prior experiments included iron supplementation in shake flask cultures. Experiments with the cell line expressing Antibody 1 and with a cell line expressing a different DVD-Ig (denoted DVD 2, also called ABT-122) than discussed previously were carried out to confirm the impact from iron supplements would be observed in bioreactors. Operating conditions were similar to shake flask experiments, but now included pH control at pH 6.90 and dissolved oxygen control at a setpoint of 40% air saturation. Antibody 1 bioreactors were run in triplicate with the exception of the 0.08 mM FC condition. DVD 2 bioreactors were run in duplicate.
# [5] = Example 2, vs unsupplemented control
molecule,measurement,setting,value
ferrous sulfate,increase in NA2F species,[1]; [5],3 fold
same,increase in total NA1F species,[1]; [5],3 fold
transferrin: Recombinant transferrin (rTf) added to shake flask cultures,galactosylation,"[1]; added with varying concentrations of ferric citrate, without galactose",no impact was observed to the galactosylation
O=C[C@H](O)[C@@H](O)[C@@H](O)[C@H](O)CO [galactose],galactosylation,[1]; supplemented with iron (ferric citrate),increased galactosylation is observed overall
same,dose dependence of galactosylation,"[1]; Example 8, galactose supplementation with ferric citrate",dose-dependence is observed
"O=C([O-])CC(O)(CC(=O)[O-])C(=O)[O-].[Na+].[Na+].[Na+] [Sodium citrate, reference compound]",effect on oligosaccharide profile,"[2]; 0.5 mM, vs unsupplemented control",no effect on the oligosaccharide profile
ferric citrate,increase of peak viable cell density,[3],4 ×10^6 cells/mL
same,galactosylation,"[2]; increased concentration (0.1, 1 mM)",increased galactosylation
same,increase in total NA1F and NA2F species,[4],dose-dependence effect
same,N-glycan glycoform profile (overall result),"[1]; Example 2, concentration dependence below 1.0 mM",very similar results to ferric nitrate
